Measured values: a compilation of properties of binary mixtures
Where “and” joins values, the source holds several entries; their conditions need not be identical. Identical values can stand only once. One block for each compound: values may come before it.

Assay: xn = mol fraction of the nth substance listed

SMILES: CCCC[n+]1ccn(C)c1.O=S(=O)([N-]S(=O)(=O)C(F)(F)F)C(F)(F)F + CO
viscosity (298 K, 100 kPa, x1 = 0.1): 1.693 mPa·s | viscosity (298 K, 100 kPa, x1 = 0.3834): 8.225 mPa·s | viscosity (298 K, 100 kPa, x1 = 0.4974): 12.54 mPa·s | viscosity (298 K, 100 kPa, x1 = 0.5875): 16.78 mPa·s | viscosity (298 K, 100 kPa, x1 = 0.7988): 30.69 mPa·s | viscosity (298 K, 100 kPa, x1 = 0.8995): 38.93 mPa·s

SMILES: CC[N+](CC)(CC)CC.[Cl-] + O
electrical conductivity (323 K, 100 kPa, x1 = 0.2): 4.1 S/m

viscosity (303.15 K, 100 kPa, x1 = 0.0833): 69.7 mPa·s | viscosity (313.15 K, 100 kPa, x1 = 0.0833): 50.2 mPa·s | viscosity (333.15 K, 100 kPa, x1 = 0.0833): 31 mPa·s | viscosity (353.15 K, 100 kPa, x1 = 0.0833): 21.35 mPa·s
SMILES: [Cl-].c1ccc(C[P+](c2ccccc2)(c2ccccc2)c2ccccc2)cc1 + OCCO

SMILES: O=S(=O)([N-]S(=O)(=O)C(F)(F)F)C(F)(F)F.[Li+] + COCCOCCOCCOCCOC
electrical conductivity (298 K, 100 kPa, x1 = 0.143): 0.255 S/m | electrical conductivity (303 K, 100 kPa, x1 = 0.143): 0.29 S/m | electrical conductivity (308 K, 100 kPa, x1 = 0.143): 0.325 S/m | electrical conductivity (313 K, 100 kPa, x1 = 0.143): 0.362 S/m | electrical conductivity (323 K, 100 kPa, x1 = 0.143): 0.465 S/m

viscosity (298.15 K, 100 kPa, x1 = 0.0942): 133 mPa·s | viscosity (298.15 K, 100 kPa, x1 = 0.1083): 128 mPa·s | viscosity (303.15 K, 100 kPa, x2 = 0.8862): 119.5 mPa·s
SMILES: CC(CC(C)(C)C)CP(=O)([O-])CC(C)CC(C)(C)C.CCCCCCCCCCCCCC[P+](CCCCCC)(CCCCCC)CCCCCC + O

SMILES: CCCCCCCCCC[n+]1ccn(C)c1.[Cl-] + O
electrical conductivity (298.15 K, 101.3 kPa, x1 = 0.0171): 3.25 S/m

SMILES: CCCCCCCCCC(=O)O + CCCC[N+](CCCC)(CCCC)CCCC.[Cl-]
viscosity (298.15 K, 100 kPa, x2 = 0.333): 372 mPa·s | viscosity (328.15 K, 100 kPa, x2 = 0.333): 73.2 mPa·s | viscosity (358.15 K, 100 kPa, x2 = 0.333): 22.2 mPa·s

viscosity (298 K, 100 kPa, x1 = 0.5): 650 mPa·s
SMILES: CCCCCCCC[N+](C)(CCCCCCCC)CCCCCCCC.[Cl-] + CCC(=O)O

SMILES: CCCC[N+]1(C)CCCC1.O=S(=O)([N-]S(=O)(=O)C(F)(F)F)C(F)(F)F + OCCOCCOCCOCCO
viscosity (298.15 K, 101 kPa, x2 = 0): 70.5 mPa·s

electrical conductivity (306.15 K, 101 kPa, x2 = 0.5): 1.29 S/m | electrical conductivity (306.15 K, 101 kPa, x2 = 0.556): 0.603 S/m | electrical conductivity (306.15 K, 101 kPa, x2 = 0.588): 0.373 S/m
SMILES: [Cl][Al]([Cl])[Cl] + CCCC[n+]1ccn(C)c1.[Cl-]

SMILES: CCCCCCCC/C=C\CCCCCCCC(=O)O + CC[N+](CC)(CC)CC.[Cl-]
viscosity (298 K, 100 kPa, x2 = 0.25): 202.2 mPa·s | viscosity (303.2 K, 100 kPa, x2 = 0.25): 156.7 mPa·s | viscosity (333.2 K, 100 kPa, x2 = 0.25): 41.7 mPa·s

viscosity (318.15 K, 100 kPa, x1 = 0.333): 205 mPa·s
SMILES: CCCCCCC[N+](CCCCCCC)(CCCCCCC)CCCCCCC.[Br-] + CCCCCCCCCC(=O)O

SMILES: OCC(F)(F)F + COP(=O)([O-])OC.Cn1cc[n+](C)c1
viscosity (298.15 K, 101 kPa, x2 = 0.1815): 6.5 mPa·s | viscosity (313.15 K, 101 kPa, x2 = 0.1815): 4.6 mPa·s | viscosity (313.15 K, 101 kPa, x2 = 0.4904): 24.5 mPa·s | viscosity (313.15 K, 101 kPa, x2 = 0.803): 70.5 mPa·s | viscosity (333.15 K, 101 kPa, x2 = 0.1815): 3.1 mPa·s | viscosity (333.15 K, 101 kPa, x2 = 0.4904): 12.8 mPa·s

SMILES: CCCC[n+]1ccn(C)c1.O=S(=O)([N-]S(=O)(=O)C(F)(F)F)C(F)(F)F + O
viscosity (298 K, 101 kPa, x2 = 0.0716): 27 mPa·s

SMILES: CCCCCCCCCC[n+]1ccn(C)c1.O=S(=O)([N-]S(=O)(=O)C(F)(F)F)C(F)(F)F + O
viscosity (293.15 K, 101 kPa, x2 = 0.204): 105 mPa·s | electrical conductivity (295.15 K, 101 kPa, x2 = 0.204): 0.15 S/m

viscosity (373 K, 100 kPa, x1 = 0.0082): 47 mPa·s | viscosity (373 K, 100 kPa, x1 = 0.0829): 82 mPa·s | viscosity (373 K, 100 kPa, x1 = 0.1256): 96 mPa·s
SMILES: O=C[C@H](O)[C@@H](O)[C@H](O)[C@H](O)CO + CC[n+]1ccn(C)c1.[Cl-]

SMILES: CCCC[n+]1ccn(C)c1.F[B-](F)(F)F + CO
electrical conductivity (298.1 K, 101 kPa, x1 = 0.0155): 0.884 S/m | electrical conductivity (298.1 K, 101 kPa, x1 = 0.0244): 1.16 S/m

SMILES: CCCC[n+]1ccn(C)c1.[Br-] + O
viscosity (298.15 K, 100 kPa, x2 = 0.9487): 2.21 mPa·s

speed of sound (293.15 K, 100 kPa, x1 = 0.2): 1716 m/s | speed of sound (298.15 K, 100 kPa, x1 = 0.2): 1704 m/s | speed of sound (303.15 K, 100 kPa, x1 = 0.2): 1692 m/s | speed of sound (308.15 K, 100 kPa, x1 = 0.2): 1681 m/s | speed of sound (313.15 K, 100 kPa, x1 = 0.2): 1654 m/s
SMILES: CC[N+]1(C)CCCC1.[Br-] + OCCO

SMILES: CC[n+]1ccn(C)c1.O=S(=O)([O-])C(F)(F)F + O
electrical conductivity (296.75 K, 101 kPa, x2 = 0.304): 1.12 S/m | electrical conductivity (298.15 K, 101 kPa, x2 = 0.304): 1.23 S/m | electrical conductivity (298.35 K, 101 kPa, x2 = 0.304): 1.22 S/m | electrical conductivity (300.65 K, 101 kPa, x2 = 0.304): 1.32 S/m | electrical conductivity (301.05 K, 101 kPa, x2 = 0.304): 1.33 S/m | electrical conductivity (301.85 K, 101 kPa, x2 = 0.304): 1.37 S/m | electrical conductivity (302.75 K, 101 kPa, x2 = 0.304): 1.44 S/m

SMILES: CCCCn1cc[n+](C)c1.O=S(=O)([N-]S(=O)(=O)C(F)(F)F)c1ccc[cH-]1.[Fe+2].c1cc[cH-]c1 + CCCC[n+]1ccn(C)c1.O=S(=O)([N-]S(=O)(=O)C(F)(F)F)C(F)(F)F
viscosity (298.15 K, 100 kPa, x2 = 0.461): 1226.1 mPa·s | viscosity (298.15 K, 100 kPa, x2 = 0.56): 542.8 mPa·s | viscosity (298.15 K, 100 kPa, x2 = 0.661): 295.4 mPa·s | viscosity (298.15 K, 100 kPa, x2 = 0.839): 108.5 mPa·s | viscosity (298.15 K, 100 kPa, x2 = 0.92): 73.3 mPa·s

SMILES: CCCn1cc[n+](C)c1C.O=S(=O)([N-]S(=O)(=O)C(F)(F)F)C(F)(F)F + OCCOCCOCCOCCO
viscosity (298.15 K, 101 kPa, x2 = 0): 85.6 mPa·s | viscosity (298.15 K, 101 kPa, x2 = 0.5): 56.1 mPa·s

SMILES: CCCCCCCC[n+]1ccn(C)c1.F[P-](F)(F)(F)(F)F + O
viscosity (298 K, 101 kPa, x2 = 0.113): 506 mPa·s

SMILES: CCCCCCCCn1cc[n+](C)c1.O=S(=O)([N-]S(=O)(=O)C(F)(F)F)C(F)(F)F + c1ccccc1
viscosity (293 K, 101 kPa, x1 = 0.1): 3.21 mPa·s | viscosity (293 K, 101 kPa, x1 = 0.4): 23.5 mPa·s | viscosity (293 K, 101 kPa, x1 = 0.8): 74.4 mPa·s | viscosity (293 K, 101 kPa, x1 = 1): 113 mPa·s

SMILES: CCCC[n+]1ccn(C)c1.F[B-](F)(F)F + O
electrical conductivity (288.15 K, 100 kPa, x1 = 0.0001): 0.0392 S/m | electrical conductivity (298.15 K, 100 kPa, x1 = 0.0001): 0.0505 S/m and 0.036 S/m | electrical conductivity (318.15 K, 100 kPa, x1 = 0.0001): 0.0942 S/m and 0.0522 S/m

speed of sound (298.15 K, 100 kPa, x2 = 0.38): 1411 m/s | speed of sound (303.15 K, 100 kPa, x2 = 0.38): 1404.5 m/s | electrical conductivity (303.15 K, 101 kPa, x1 = 0.5): 2.49 S/m | electrical conductivity (303.15 K, 101 kPa, x1 = 0.57): 2.12 S/m | electrical conductivity (303.15 K, 101 kPa, x1 = 0.6): 1.91 S/m | electrical conductivity (303.15 K, 101 kPa, x1 = 0.67): 1.63 S/m | electrical conductivity (306.15 K, 101 kPa, x2 = 0.5): 2.66 S/m | electrical conductivity (306.15 K, 101 kPa, x2 = 0.588): 0.982 S/m | electrical conductivity (306.15 K, 101 kPa, x2 = 0.625): 0.663 S/m | speed of sound (313.15 K, 100 kPa, x2 = 0.38): 1391.8 m/s | speed of sound (318.15 K, 100 kPa, x2 = 0.38): 1385.6 m/s
SMILES: [Cl][Al]([Cl])[Cl] + CC[n+]1ccn(C)c1.[Cl-]

SMILES: CC[n+]1ccn(C)c1.[Cl-] + O
viscosity (373 K, 100 kPa, x1 = 0.8): 20 mPa·s | viscosity (373 K, 100 kPa, x1 = 0.9524): 27 mPa·s

SMILES: CCCC[N+](CCCC)(CCCC)CCCC.[Cl-] + OCC(O)CO
viscosity (318.15 K, 100 kPa, x1 = 0.333): 57.8 mPa·s

viscosity (302.2 K, 101.3 kPa, x2 = 0.6576): 324 mPa·s | viscosity (305.5 K, 101.3 kPa, x2 = 0.6576): 196 mPa·s | viscosity (310.4 K, 101.3 kPa, x2 = 0.6576): 96 mPa·s | viscosity (311.4 K, 101.3 kPa, x2 = 0.6576): 85 mPa·s | viscosity (314.3 K, 101.3 kPa, x2 = 0.6576): 54 mPa·s | viscosity (317.5 K, 101.3 kPa, x2 = 0.6576): 37 mPa·s | viscosity (322.4 K, 101.3 kPa, x2 = 0.6576): 21 mPa·s
SMILES: O=C([O-])C(F)(F)F.[Na+] + CCCCNC(N)=O

viscosity (293.15 K, 100 kPa, x1 = 0.333): 302 mPa·s | viscosity (293.15 K, 100 kPa, x1 = 0.5): 261 mPa·s
SMILES: O=c1cc[nH]cc1 + CCCC[n+]1ccn(C)c1.[Cl-]

SMILES: CC[N+](CC)(CC)CC.[Cl-] + Oc1ccccc1
viscosity (303.15 K, 101 kPa, x1 = 0.333): 72.1 mPa·s | viscosity (313.15 K, 101 kPa, x1 = 0.2): 21.28 mPa·s | viscosity (313.15 K, 101 kPa, x1 = 0.25): 24.68 mPa·s | viscosity (313.15 K, 101 kPa, x1 = 0.333): 43 mPa·s | viscosity (323.15 K, 101 kPa, x1 = 0.25): 16.86 mPa·s | viscosity (323.15 K, 101 kPa, x1 = 0.333): 27.8 mPa·s
